The assay has as its target T1, Lp-PLA2 (Homo sapiens, UniProt Q13093).
T1 construct: Individual serum No. 16, individual serum No. 78; from tissue; host or cells: serum and plasma (individual sera, pooled sera, heparin and citrated pooled plasma)
T1 sequence (Q13093 22-441): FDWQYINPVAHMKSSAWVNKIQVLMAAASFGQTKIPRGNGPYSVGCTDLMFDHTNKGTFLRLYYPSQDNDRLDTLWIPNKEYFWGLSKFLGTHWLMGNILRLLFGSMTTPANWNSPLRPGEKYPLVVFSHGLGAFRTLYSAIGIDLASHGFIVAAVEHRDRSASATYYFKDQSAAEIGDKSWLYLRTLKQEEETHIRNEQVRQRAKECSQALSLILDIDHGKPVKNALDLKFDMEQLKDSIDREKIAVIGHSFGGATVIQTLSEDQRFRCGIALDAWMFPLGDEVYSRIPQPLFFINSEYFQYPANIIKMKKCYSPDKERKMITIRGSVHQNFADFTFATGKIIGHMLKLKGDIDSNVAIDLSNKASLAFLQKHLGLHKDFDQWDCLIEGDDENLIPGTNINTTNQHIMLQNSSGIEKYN
Kind of assay: Lp-PLA2 activity measurement in serum/plasma with reagents of the invention (PAF substrate, lyso-PAF-PLD, choline oxidase, peroxidase colorimetry). The format is biochemical. The following applies: for values for absorbance change (sensitivity) compared with DAOS: Trinder reagent with 4-AA. The method, then: Unless otherwise specified, in these examples the Method 1 described under 1) below is used for calculating Lp-PLA2 activity values. In these examples, (nmol/min/mL) is sometimes expressed as (U/L).
This is calculated by the following formula based on the absorbance change per minute (ΔmAbs/min) as calculated from absorbance at the measuring points and the millimolar extinction coefficient (ε=36) of TODB at 546 nm.
4 μL of the sample was mixed with 160 μL of the R1 reagent, and incubated for 5 minutes at 37° C. (measuring points 1 to 16), after which 40 μL of the R2 reagent was added to initiate a reaction (measuring point 17). The absorbance of water (blank) at the same measuring points was subtracted from the absorbance of the sample about 3.6 to 4.5 minutes after the reaction was initiated by addition of the R2 reagent (measuring points 30 to 33) to calculate the absorbance change per minute (ΔmAbs/min), and the Lp-PLA2 activity value (nmol/min/mL) was calculated according to the previous formula.
[…] was mixed with 150 μL of the R1 reagent, and incubated for 5 minutes at 37° C. (measuring points 1 to 15), after which 100 μL of the R2 reagent was added to initiate a reaction (measuring point 16). The absorbance of water (blank) at the same measuring points was subtracted from the absorbance of the sample about 2 to 3 minutes after the reaction was initiated by addition of the R2 reagent (measuring points 23 to 26) to calculate the absorbance change per minute (ΔmAbs/min), and the Lp-PLA2 activity value (nmol/min/mL) was calculated according to the previous formula. The values for absorbance change per minute (sensitivity) (ΔmAbs/min) and the Lp-PLA2 activity values (nmol/min/mL) at each pH are shown in Tables 1 and 2.
5 μL of sample was mixed with 150 μL of the R1 reagent, and incubated for 5 minutes at 37° C. (measuring points 1 to 15), after which 100 μL of the R2 reagent was added to initiate a reaction (measuring point 16). The absorbance of water (blank) at the same measuring points was subtracted from the absorbance of the sample about 3.5 to 4.5 minutes after the reaction was initiated by addition of the R2 reagent (measuring points 27 to 30) to calculate the absorbance change per minute (ΔmAbs/min), and the Lp-PLA2 activity value (nmol/min/mL) was calculated according to the previous formula. The values for absorbance change per minute (sensitivity) (ΔmAbs/min) and Lp-PLA2 activity (nmol/min/mL) and the relative activity for each substrate given 100 as the Lp-PLA2 activity value for PAF(C16) are shown in Tables 19 to 24.
Each sample was mixed with 160 μL of the R1 reagent, and incubated for 5 minutes at 37° C., (measuring points 1 to 15), after which 40 μL of the R2 reagent was added to initiate the reaction (measuring point 16). The absorbance of water (blank) at the same measuring points was subtracted from the absorbance of the sample about 3.5 to 4.5 minutes after the reaction was initiated by addition of the R2 reagent (measuring points 27 to 30) to calculate the absorbance change per minute (ΔmAbs/min), and the Lp-PLA2 activity value (nmol/min/mL) was calculated according to the previous formula. […]
(measuring points 1 to 16), after which 100 μL of the R2 reagent was added to initiate a reaction (measuring point 17). The absorbance of water (blank) at the same measuring points was subtracted from the absorbance of the sample about 3.5 to 4.5 minutes after the reaction was initiated by addition of the R2 reagent (measuring points 29 to 32) to calculate the absorbance change per minute (ΔmAbs/min), and the Lp-PLA2 activity value (nmol/min/mL) was calculated according to the previous formula.

The mark [1] stands for this setting: Example 10, 0.03% Trinder reagent in R1 with 4-AA, sample Individual serum No16.
Where [2] appears, read: Example 10, 0.03% Trinder reagent in R1 with 4-AA, sample Individual serum No78.
Setting [3] is: Example 10, 0.03% Trinder reagent in R1 with 4-AA, sample Pooled serum J042.
Setting [4] is: Example 4, 50 mM buffer pH 7.5 in R1 and R2, sample Individual serum 16.
[5] abbreviates: Example 4, 50 mM buffer pH 7.5 in R1 and R2, sample Individual serum 78.

Structures are written as SMILES.

Consider `Cc1cccc(N(CCCCS(=O)(=O)[O-])CCCCS(=O)(=O)[O-])c1.[Na+].[Na+]` [TODB, N,N-bis(4-sulfobutyl)-3-methylaniline, disodium salt], for which the Lp-PLA2 activity value by setting is: under setting [1], 71.0 nmol/min/mL; under setting [2], 30.0 nmol/min/mL; under setting [3], 31.9 nmol/min/mL. Further, the “absorbance change per minute (sensitivity)” value (from here on “absorbance change per minute”) by setting is: under setting [1], 30.3 ΔmAbs/min; under setting [2], 12.8 ΔmAbs/min; under setting [3], 13.6 ΔmAbs/min. Where the note is “Example 10”, the “values for absorbance change (sensitivity) compared with DAOS” value is on record as “about twice those obtained with DAOS”.

`NC(CO)(CO)CO` [Tris, 2-Amino-2-hydroxymethyl-1,3-propanediol] gave a Lp-PLA2 activity value under setting [4] of 99.1 nmol/min/mL and a Lp-PLA2 activity value under setting [5] of 44.7 nmol/min/mL. Besides, the “absorbance change per minute” value reads like this: under setting [4], 42.3 ΔmAbs/min; under setting [5], 19.1 ΔmAbs/min.

With `O=S(=O)(O)CCNC(CO)(CO)CO` [TES, N-tris(hydroxymethyl)methyl-2-aminoethanesulfonic acid], the Lp-PLA2 activity value runs as follows: under setting [4], 75.7 nmol/min/mL; under setting [5], 37.5 nmol/min/mL. The “absorbance change per minute” value is 32.3 ΔmAbs/min under setting [4] and 16.0 ΔmAbs/min under setting [5].

As to `O=P(O)(O)O` [Pi-K, potassium phosphate], under setting [4], the Lp-PLA2 activity value is listed as 84.3 nmol/min/mL and the “absorbance change per minute” value is recorded as 36.0 ΔmAbs/min. Also, under setting [5], the Lp-PLA2 activity value is reported as 37.5 nmol/min/mL and the “absorbance change per minute” value is 16.0 ΔmAbs/min.

Take `O=S(=O)(O)CCN1CCN(CCO)CC1` [HEPES, 2-[4-(2-Hydroxyethyl)-1-piperazinyl]ethanesulfonic acid]: under setting [4], the Lp-PLA2 activity value was 76.4 nmol/min/mL and the “absorbance change per minute” value is reported as 32.6 ΔmAbs/min. Further, under setting [5], the Lp-PLA2 activity value is listed as 36.5 nmol/min/mL and the “absorbance change per minute” value is 15.6 ΔmAbs/min.

For the compound `O=S(=O)(O)CCN1CCN(CCS(=O)(=O)O)CC1` [PIPES, Piperazine-1,4-bis(2-ethanesulfonic acid)], under setting [4], the Lp-PLA2 activity value is on record as 89.5 nmol/min/mL and the “absorbance change per minute” value is listed as 38.2 ΔmAbs/min. Besides, under setting [5], the Lp-PLA2 activity value was 43.1 nmol/min/mL and the “absorbance change per minute” value was 18.4 ΔmAbs/min.

For the compound `O=S(=O)(O)CCCN1CCOCC1` [MOPS, 3-Morpholinopropanesulfonic acid], under setting [4], the Lp-PLA2 activity value came out at 81.3 nmol/min/mL and the “absorbance change per minute” value is given as 34.7 ΔmAbs/min. Also, under setting [5], the Lp-PLA2 activity value is recorded as 39.4 nmol/min/mL and the “absorbance change per minute” value is on record as 16.8 ΔmAbs/min.

Consider `CCN(CC(O)CS(=O)(=O)[O-])c1cc(OC)cc(OC)c1.[Na+]` (centres unmarked) [DAOS, N-ethyl-N-(2-hydroxy-3-sulfopropyl)-3,5-dimethoxyaniline sodium salt], for which the Lp-PLA2 activity value is given as 33.7 nmol/min/mL under setting [1], 14.5 nmol/min/mL under setting [2] and 14.1 nmol/min/mL under setting [3]. Besides, the “absorbance change per minute” value is, setting by setting: under setting [1], 14.4 ΔmAbs/min; under setting [2], 6.2 ΔmAbs/min; under setting [3], 6.0 ΔmAbs/min.

Take `CCN(CC(O)CS(=O)(=O)[O-])c1cccc(C)c1.O.O.[Na+]` (centres unmarked) [TOOS, N-ethyl-N-(2-hydroxy-3-sulfopropyl)-3-methylaniline, sodium salt, dihydrate]: the Lp-PLA2 activity value worked out at 69.3 nmol/min/mL under setting [1], 28.1 nmol/min/mL under setting [2] and 30.9 nmol/min/mL under setting [3]. In addition, the “absorbance change per minute” value was 29.6 ΔmAbs/min under setting [1], 12.0 ΔmAbs/min under setting [2] and 13.2 ΔmAbs/min under setting [3]. Moreover, the “values for absorbance change (sensitivity) compared with DAOS” value (Example 10) is listed as “about twice those obtained with DAOS”.

For the origin of these results see patent publication US10900063B2, “Measurement of Lp-PLA2 activity” (ASAHI KASEI PHARMA CORPORATION, priority 2016, dated 2021).
